Data set [1] deals with primary cortical neurons. Kind of data set: Proteolysis of long-lived proteins by radioactive pulse-chase in primary cortical neurons. In kind it is cell-based, mouse. Particulars: added to GCase polypeptide KD. As to the method: In this Example, a test was conducted to determine whether GCase polypeptide KD affects a lysosomal degradation pathway. In this test, neurons were treated with the well-established lysosomal inhibitors ammonium chloride (NH4Cl) and leupeptin.
Proteolysis of long-lived proteins was determined by radioactive pulse-chase using ^3H-leucine. This procedure was performed as described previously (Kaushik et al. Methods Enzymol. 452: 297, 2009). Briefly, cortical cells were grown in 24 well clusters seeded at 33000 cells/well and infected at moi 3 with scrb or GCase polypeptide shRNA expressing lentiviral vectors. On dpi 4, ^3H-leucine (PerkinElmer, # NET460A001 MC, final 5 μCi/ml) was added in standard neurobasal medium containing B27 for 2 days to trace label proteins. […] Samples were centrifuged at 20,000×g for 20 min, 4° C., and the radioactivity was measured in 5 ml of scintillation cocktail using a Beckman LS 1701 liquid scintillation counter (Beckman Instruments). Precipitated protein pellets were extracted in 200 μl of Na deoxycholate, 0.1 M NaOH, and radioactivity was determined. Percent proteolysis was calculated as described in detail elsewhere (Kaushik et al. Methods Enzymol. 452: 297, 2009). […]

The subject of data set [2] is α-synuclein/LAMP1 colocalized puncta. Put plainly: Immunostaining of α-synuclein and LAMP1, condensed nuclei count in primary neurons. In kind it is cell-based. How it is done: Next in this Example, the effect of GlcCer on α-synuclein fibril formation was assessed under acidic conditions (pH 5.0, 37° C.), to simulate a lysosome-like environment in vitro because the neuronal culture data had indicated increased colocalization of α-synuclein with LAMP1 upon GCase polypeptide KD (FIGS. 5H and 5I). […] An increased frequency of condensed nuclei in WT α-synuclein/GC-depleted cells, compared to WT α-synuclein/scrb shRNA cells (panel H), was consistent with a decline in neuronal viability. […] The α-synuclein detected in P2 was in the form of a T-sol 18 kDa monomer (panel I, left), as well as T-insoluble monomer and multimers (panel I, right).
(§1) Cortical cells grown on poly-D-lysine coated coverslips in 12 well clusters were washed very briefly in warm PBS followed by rapid fixation in PBS-buffered 4% paraformaldehyde (w/v) for 15 min. […] Coverslips were mounted onto glass slides with 10 μl of 4,6-diamidino-2-phenylindole dihydrochloride (DAPI)-containing Fluoromount G (Southern Biotech, #0100-20) and visualized with a fluorescence microscope. For quantification of α-synuclein and LC3 immunostaining, pixels from equal-time exposed images were quantified using Adobe Photoshop software CS2 (Adobe Systems), and normalized to DAPI.

The test system of another data set is Hela cells. Put plainly: Lysosomal proteolysis by radioactive pulse-chase in transfected Hela cells. In kind it is cell-based. As to the method: (§2) Further in this Example, it was assessed whether GCase polypeptide overexpression had the ability to directly enhance lysosomal proteolysis in a non-neuronal cell line. Hela cells were transfected with a myc-tagged GCase polypeptide expression construct and lysosomal proteolysis was assessed by radioactive pulse-chase (FIG. 17A). […] This effect was also confirmed through a different assay, by measuring the effect of GCase polypeptide overexpression on the activity of the lysosomal protease cathepsin B. A cell-permeable fluorescent-tagged cathepsin B substrate (MAGIC RED cathepsin detection kit, Immunochemistry Technologies) was added to transfected Hela cells, and degradation of this substrate was determined in living cells after substrate wash-out.

For the next data set, the system named is LC3-II. Kind of data set: LC3-II western blot in primary cortical neurons. In kind it is cell-based, mouse. Particulars: leupeptin compared with GCase polypeptide KD. How it is done:
(§3) As discussed above, the increased α-synuclein levels and toxicity that occur with GCase polypeptide depletion may result from generalized lysosomal inhibition or may be due to alterations in GlcCer lipid metabolism. To distinguish between these two possibilities, in this Example, the lysosomal protein degradation was inhibited with leupeptin in WT α-synuclein-expressing neurons and the neurotoxicity was assessed. […] Thus, despite similar effects on the total α-synuclein levels by leupeptin or GCase polypeptide KD, only GCase polypeptide KD increased the steady-state levels of soluble HMW α-synuclein. In this Example, sequential extraction followed by SDS-PAGE/Coomassie brilliant blue (CBB) staining was used to determine the effect of leupeptin treatment on the solubility of total cellular proteins.
Most materials for SDS-PAGE were obtained from Invitrogen (NuPAGE system). […] Blots were blocked in Odyssey blocking buffer (Li-Cor biosciences) containing 0.05% Tween, or 5% non-fat dry milk in TBS-T 0.2%, followed by incubation with primary antibodies (see above for dilutions), and detected with anti-mouse or -rabbit IgG conjugated to IRDye 680 or 800 (1:10,000, Li-Cor biosciences). […] Any nonspecific bands detected were not included in densitometric analyses. […]
Background: Immunoblotting shows a protein as a band on a membrane.

The next data set relates to total cellular proteins. Put plainly: Total cellular protein solubility by sequential extraction, SDS-PAGE and Coomassie brilliant blue staining. In kind it is cell-based, mouse. Particulars: leupeptin treatment. As to the method:
as §3
(§4) Cells were harvested in Triton X-100 lysis buffer. The extracts were centrifuged at 100,000×g for 30 min. The pellets were extracted in 2% SDS buffer. Similar procedures were utilized for mouse and human brain tissues, using 20 volumes of Triton X-100 lysis buffer. Samples were loaded onto SDS-PAGE gels or subjected to native SEC followed by western blot analysis as described below (Mazzulli et al., J. Neurosci. 26:10068, 2006).

Data set [3] deals with α-synuclein. Put plainly: α-synuclein solubility and oligomers (sequential extraction/western blot, native SEC, immunostaining) in primary cortical neurons. In kind it is cell-based. As to the method:
as §3, §4
Infected cortical cells (8,000,000 cells/10 cm plate) were harvested in Triton X-100 lysis buffer and 100,000×g Triton X-100 soluble lysate was loaded onto a Superdex 200 HR 10/300 column (GE healthcare) as described previously (Mazzulli et al., J. Neurosci. 26:10068, 2006). Quantification of α-synuclein oligomers has been described in detail previously (Tsika et al., J. Neurosci. 30: 3409, 2010).
as §1, with “min. Cells were incubated with PBS containing 0.3% (v/v) Triton X-100 overnight at 4° C., then blocked in 2% (w/v) bovine serum albumin (BSA) (Sigma-Aldrich, # A-7906) and 10% normal goat serum (Jackson Immunoresearch Laboratories, #005-000-121) in PBS-Triton X-100 for 1 hr. Primary antibodies were diluted into blocking buffer (see above for dilutions), incubated overnight at 4° C., and washed extensively in PBS-Triton X-100.” for “min.”

Data set [4] deals with primary cortical neurons. Kind of data set: Neurotoxicity assessment (neurofilament immunostaining, neuronal volume) in primary cortical neurons expressing human WT α-synuclein. In kind it is cell-based.
A further data set relates to cathepsin B. Kind of data set: Cathepsin B activity in living transfected Hela cells (fluorescent substrate). In kind it is cell-based. The conditions noted are these: overexpression in transfected Hela cells, versus GFP. How it is done:
as §2
In this Example, it was investigated whether enhancement of lysosomal enzyme trafficking through stimulation of the secretory pathway would result in increased lysosomal function and reduction of α-synuclein. Therefore, in this Example the small GTPase Rab1a polypeptide was overexpressed by lentiviral infection in iPS neurons to stimulate enzyme trafficking. […] The effect of Rab1a polypeptide was determined in human iPS dopamine neurons derived from reprogrammed fibroblasts of a PD patient (Coriell line ND27760). […] Further in this Example, it was determined if Rab1a polypeptide enhances lysosomal function by monitoring cathepsin B activity.

For data set [5], the system named is α-synuclein. Kind of data set: α-synuclein levels by western blot in human midbrain iPS dopamine neurons. In kind it is cell-based. Particulars: lentiviral overexpression, moi 5, human PD dopamine neurons (Coriell line ND27760, SNCA triplication). From the text: In this Example, it was investigated whether enhancement of lysosomal enzyme trafficking through stimulation of the secretory pathway would result in increased lysosomal function and reduction of α-synuclein. Therefore, in this Example the small GTPase Rab1a polypeptide was overexpressed by lentiviral infection in iPS neurons to stimulate enzyme trafficking. Rab1a polypeptide has been established to function specifically at the ER-Golgi step of the secretory pathway (Duvernay et al., Cell Signal 17: 1457, 2005). The effect of Rab1a polypeptide was determined in human iPS dopamine neurons derived from reprogrammed fibroblasts of a PD patient (Coriell line ND27760). These cells harbor a triplication mutation in the genomic region containing SNCA which encodes for α-synuclein, leading to overexpression of the protein and lysosomal trafficking deficits. […] Further in this Example, it was determined if Rab1a polypeptide enhances lysosomal function by monitoring cathepsin B activity.
It was also shown in this Example that treatment with the GCase polypeptide activator increased the levels of total GCase protein and increased the post-ER forms, indicating enhancement of flux to the lysosome (FIG. 19B).
Most materials for SDS-PAGE were obtained from Invitrogen (NuPAGE system). Protein lysates were boiled in sample buffer (20 mM Tris, 1% (v/v) glycerol, 180 mM β-mercaptoethanol, 0.003% (w/v) bromophenol blue, 2% (w/v) SDS, pH 6.8), resolved on 4%-12% Bis-Tris polyacrylamide precast gels in a MOPS-SDS running buffer, or 4%-12% Tris-Glycine gels. 10% Tris-Glycine gels were utilized for some GCase polypeptide western blot's (FIGS. 13B, 13D, and 13E, and FIGS. 14C and 14F). […] Blots were blocked in Odyssey blocking buffer (Li-Cor biosciences) containing 0.05% Tween, or 5% non-fat dry milk in TBS-T 0.2%, followed by incubation with primary antibodies (see above for dilutions), and detected with anti-mouse or -rabbit IgG conjugated to IRDye 680 or 800 (1:10,000, Li-Cor biosciences). […] Any nonspecific bands detected were not included in densitometric analyses. […]

[6] abbreviates: leupeptin-treated WT α-synuclein-expressing neurons.

`CC(=O)N[C@@H](CC(C)C)C(=O)N[C@@H](CC(C)C)C(=O)N[C@H](C=O)CCCNC(=N)N` [leupeptin]: in the data set on primary cortical neurons [1], the “proteolysis of long-lived proteins in GCase polypeptide shRNA-treated cells” value is recorded as “did not additively inhibit”. Further, the “percentage of cells with condensed nuclei compared to untreated control cells” value in data set [2] (7 dpi) is “did not alter”. For the same molecule, the “percentage of cells containing α-synuclein/LAMP1 colocalized puncta” value in [2] (leupeptin-treated cells) is on record as about 90%. In the data set with Hela cells, the “effect of lysosomal inhibitors on the proteolysis increase by GCase polypeptide overexpression” value was “completely reversed”. The “levels of LC3-II” value in the data set on LC3-II was “comparable increase”. Besides, the “levels of total insoluble proteins, fold increase” value in the data set on total cellular proteins is recorded as about 2 fold. Besides, in the data set on α-synuclein [3] (setting [6]), the “T-insoluble α-synuclein” value is “increase” and the “amount of soluble α-synuclein” value is recorded as “no change”. In addition, the “total α-synuclein immunostaining intensity” value with α-synuclein [3] (leupeptin-treated compared to control cells) is given as “increase”. In the data set with α-synuclein [3] (leupeptin-treated neurons), the “soluble HMW α-synuclein by SEC” value is “not detectable”. Besides, in the data set with primary cortical neurons [4] (>12 dpi), the “neurotoxicity at later time points” value was “did result in neurotoxicity”. Further, the α-synuclein-mediated neurotoxicity entry in the data set on primary cortical neurons [4] (WT α-synuclein-expressing neurons, 50 μM leupeptin, 7 dpi) is reported as “did not enhance”.

For “Rab1a polypeptide: small GTPase overexpressed by lentiviral infection or transfection; SEQ ID NO. 13”, the “cathepsin B activity” value with cathepsin B was “increase”. Further, in the data set on α-synuclein [5], the α-synuclein levels result is “dramatic reduction”.

B1: GCase polypeptide: myc-tagged GCase polypeptide expression construct transfected into Hela cells (protein, UniProt P04062 40-536, looked up)
Lysosomal acid …: ARPCIPKSFGYSSVVCVCNATYCDSFDPPTFPALGTFSRYESTRSGRRMELSMGPIQANHTGTGLLLTLQPEQKFQKVKGFGGAMTDAAALNILALSPPAQNLLLKSYFSEEGIGYNIIRVPMASCDFSIRTYTYADTPDDFQLHNFSLPEEDTKLKIPLIHRALQLAQRPVSLLASPWTSPTWLKTNGAVNGKGSLKGQPGDIYHQTWARYFVKFLDAYAEHKLQFWAVTAENEPSAGLLSGYPFQCLGFTPEHQRDFIARDLGPTLANSTHHNVRLLMLDDQRLLLPHWAKVVLTDPEAAKYVHGIAVHWYLDFLAPAKATLGETHRLFPNTMLFASEACVGSKFWEQSVRLGSWDRGMQYSHSIITNLLYHVVGWTDWNLALNPEGGPNWVRNFVDSPIIVDITKDTFYKQPMFYHLGHFSKFIPEGSQRVGLVASQKNDLDAVALMHPDGSAVVVVLNRSSKDVPLTIKDPAVGFLETISPGYSIHTYLWRRQ
modifications: myc tag
notes: myc-tagged GCase polypeptide expression construct transfected into Hela cells
With B1, the “cathepsin B activity” value in the data set with cathepsin B is recorded as “increased”. Besides, the “increase in proteolysis compared to GFP control transfected cells” value in the data set on Hela cells (myc-tagged GCase polypeptide expression construct) turned out to be 40%.

The record behind these values is patent US9845327B2, “Treatment of proteinopathies” (THE GENERAL HOSPITAL CORPORATION, priority 2011, dated 2017).
